Measurements from ChEMBL document CHEMBL4145553, “Design, synthesis, and biological evaluation of novel amide and hydrazide based thioether analogs targeting Histone deacteylase (HDAC) enzymes” (Eur J Med Chem, 2018).

Tests used:
[1] = tested on: MDA-MB-435; assay: Antiproliferative activity against human MDA-MB-435 cells after 24 hrs by MTT assay; assay type: functional
[2] = tested on: HL-60; assay: Antiproliferative activity against human HL60 cells after 24 hrs by MTT assay; assay type: functional

Question: How did the GI50 [1] turn out when `CC(/C=C/C(=O)NO)=C\[C@@H](C)C(=O)c1ccc(N(C)C)cc1` [TRICHOSTATIN] was run?
Answer: Its GI50 is 1.78 µM.

Question: What about the GI50 [2] of the same compound?
Answer: The GI50 was 0.59 µM.
